Experimental findings from patent US7482032B2, “Carotenoid preparation” (I.B.R. Israeli Biotechnology Research, Ltd., priority 1998, dated 2009) are described below.

Series [1] in a line: Stability of phytoene and phytofluene at various incubation temperatures in oils and solvents. The series is classed as physicochemical. The settings on record: 4° C., 23° C., 30° C. and 60° C., hexane or oils, four months. As for the experimental part: Stability of the carotenoids in the various temperatures was determined by long-term incubation of phytoene and phytofluene in several types of oils and solvents at 4° C., 23° C., 30° C. and 60° C. The amount of phytoene and phytofluene left was determined spectrophotometrically. The percent of phytoene and phytofluene left was calculated as follows: […]
The stability of phytoene and phytofluene under different temperature conditions (4° C., 23° C., 30° C. and 60° C.) in hexane or in other various commercially used oils was also measured.
The measurements were carried out over a period of four months.

Series [2] in a line: Stability under visible light (filtered sunlight, aerobic). The series is classed as physicochemical. On the procedure: Stability of phytoene and phytofluene under visible light was measured under sunlight (full sun summer day in Rehovot, Israel, at noon) filtered through “hot mirror” (Andover Corporation, Salem, N.H., transmittance 400-650 nm) filter. Samples were dissolved in ethanol, exposed to light for 30-150 min and then extracted in hexane after basic hydrolysis (as in extraction method above). Phytoene, phytofluene and beta-carotene amounts were measured spectrophotometrically, and percentage lefts were calculated as in section 5 above.
Stability of phytoene and phytofluene was compared to that of beta-carotene stability (as explained in materials and methods) under visible light. The absorbance of the preparation is determined in 220-600 nm wavelength and the amount of each of the above carotenoids in each sample is calculated to determine the percent of the carotenoids measured after irradation of the extract compared to measurements prior to irradiant (see example 2 above).

A short description of series [3]: Stability of phytoene and phytofluene under UV irradiation (aerobic). The series is classed as physicochemical. As for the experimental part: 6. Stability of Phytoene and Phytofluene Under Aerobic Conditions in UV Lights and Various Incubation Temperatures
Stability of the carotenoids in the various temperatures was determined by long-term incubation of phytoene and phytofluene in several types of oils and solvents at 4° C., 23° C., 30° C. and 60° C. The amount of phytoene and phytofluene left was determined spectrophotometrically. The percent of phytoene and phytofluene left was calculated as follows:
[formula] Stability under UV lights (254 nm, 365 nm, 254+365 nm), for 30 mins. at 300/310 μw/cm^2 was determined. 7. Stability of Phytoene and Phytofluene Under Aerobic Conditions in Visible Light
The stability of the phytoene and phytofluene extracts obtained as explained in Example 1 above was determined by spectrophotometric analysis. Phytoene and phytofluene were dissolved in hexane or oil. The absorbance of the preparation is determined in 220-600 nm and the amount of each of the above carotenoids in each sample is calculated to determine the percent of the carotenoids measured after irradiation of the extract divided by the amount of the same carotenoid which was measured in the extract before exposing it to irradiation (see Materials and Methods 5 above). The stability of the phytoene and phytofluene was measured by the exposure of the extract both to UVA light (365 nm) and UVB light (254 nm) irradiation as well as to a combination of UVA and UVB irradiation.

A short description of series [4]: UV absorbance spectra (spectrophotometric analysis). It counts as physicochemical. Conditions: extract from Dunaliella sp. As for the experimental part: Absorption spectra of the phytoene and phytofluene extract was determined using Hewlett Packard 8452A Diode Array Spectrophotometer.
As expected, the main absorbance peak for β-carotene was at 450 nm. β-Carotene was reduced due to the synthesis inhibition while phytoene and phytofluene increased.

The subject of series [5] is DNA repair synthesis activity. Briefly: Genotoxic effect: induction of DNA repair synthesis activity (ratio R). It counts as biochemical. Conditions: R≦2 no toxic effect. As for the experimental part:
The genotoxicity is measured as the induction of DNA repair synthesis activity and is expressed by the ratio (R): while R≦2 indicate no toxic effect

[6] abbreviates: 254 nm + 365 nm, 30 minutes exposure, in hexane.
The mark [7] stands for this setting: 254 nm + 365 nm, 30 minutes exposure, in oil.
Where [8] appears, read: 254 nm, 30 minutes exposure, in hexane.
[9] abbreviates: 254 nm, 30 minutes exposure, in oil.
[10] abbreviates: 365 nm, 30 minutes exposure, in hexane.
The mark [11] stands for this setting: 365 nm, 30 minutes exposure, in oil.
The mark [12] stands for this setting: Darkness, 30 minutes, in hexane.

Molecules are shown by their SMILES.

Turning to `CC(C)=CCC/C(C)=C/CC/C(C)=C/C=C/C(C)=C/C=C/C=C(\C)CC/C=C(\C)CC/C=C(\C)CCC=C(C)C` [Phytofluene, 15Z, 7,8, 11, 12, 7′, 8′-hexahydro-γ,γ-carotene], the “Stability under different temperature conditions” value in series [1] is “stable in the entire measured temperature range”. Moreover, the “% left” value is listed as 100% in series [2] (time of exposure 0 min); 66.13% in series [2] (time of exposure 30 min); 50.42% in series [2] (time of exposure 90 min); 41.33% in series [2] (time of exposure 120 min); 33.06% in series [2] (time of exposure 150 min). For the same compound, the “PH and PF (% left)” value in series [3] (setting [6]) was 99.0%; in series [3] (setting [7]) it was 98%; in series [3] (setting [8]), 92.6%; in series [3] (setting [9]) it was 90%; in series [3] (setting [10]) it was 101.5%; in series [3] (setting [11]), 88%. Moreover, the “PH and PF (% left)” value in series [3] (setting [12]) worked out at 100%; in series [3] (Darkness, 30 minutes, in oil), 100%. Also, the main absorbance peak in series [4] is reported as 348 nm.
For `CC(C)=CCC/C(C)=C/CC/C(C)=C/CC/C(C)=C/C=C/C=C(\C)CC/C=C(\C)CC/C=C(\C)CCC=C(C)C` [Phytoene, 7,8, 11, 12, 7′, 8′, 11′, 12′-octahydro-γ,γ-carotene], the “Stability under different temperature conditions” value in series [1] was “stable in the entire measured temperature range”. The “% left” value in series [2] (time of exposure 0 min) was 100%; in series [2] (time of exposure 30 min), 54.46%; in series [2] (time of exposure 90 min), 20.33%; in series [2] (time of exposure 120 min), 15.70%; in series [2] (time of exposure 150 min), 13.64%. Further, the “PH and PF (% left)” value in series [3] (setting [6]) is on record as 92.4%; in series [3] (setting [7]), 101%; in series [3] (setting [8]), 92.2%; in series [3] (setting [9]), 100%; in series [3] (setting [10]), 98.7%; in series [3] (setting [11]) it was 100%. The “PH and PF (% left)” value in series [3] (setting [12]) came to 100%; in series [3] (Darkness, 30 minutes, in oil) it was 100%. Further, in series [4], the main absorbance peak came to 286 nm.
As for `CC1=C(/C=C/C(C)=C/C=C/C(C)=C/C=C/C=C(C)/C=C/C=C(C)/C=C/C2=C(C)CCCC2(C)C)C(C)(C)CCC1` [Beta-carotene, reference compound], the “% left” value in series [2] (time of exposure 0 min) turned out to be 100%; in series [2] (time of exposure 30 min), 25.00%; in series [2] (time of exposure 90 min) it was 11.36%; in series [2] (time of exposure 120 min), 9.47%; in series [2] (time of exposure 150 min), 5.68%. The main absorbance peak in series [4] stood at 450 nm.
Take `COS(C)(=O)=O` [MMS]: the “Genotoxicity (Ratio)” value in series [5] (concentration 2 mM) was 2.44; in series [5] (concentration 10 mM) it was 6.26.
